{"source": "paper PMC6138237", "about": "“Machine intelligence decrypts β-lapachone as an allosteric 5-lipoxygenase inhibitor” (Chemical Science, 2018)", "key": {"[1]": {"system": "Staphylococcus aureus ATCC 25923", "assay": "Minimum inhibitory concentration assay, Staphylococcus aureus", "details": "concentrations up to 50 µM"}, "Escherichia coli K12": {"system": "Escherichia coli K12", "assay": "Minimum inhibitory concentration assay, Escherichia coli", "details": "concentrations up to 50 µM"}, "PDE5": {"target": "PDE5 (Homo sapiens, UniProt O76074)", "assay": "Phosphodiesterase 5 inhibition assay, Cerep (scintillation counting)", "format": "biochemical", "details": "for percent inhibition at 2 µM: PDE5"}, "p38α": {"target": "p38α (Homo sapiens, UniProt Q16539)", "sequence (Q16539 whole entry)": "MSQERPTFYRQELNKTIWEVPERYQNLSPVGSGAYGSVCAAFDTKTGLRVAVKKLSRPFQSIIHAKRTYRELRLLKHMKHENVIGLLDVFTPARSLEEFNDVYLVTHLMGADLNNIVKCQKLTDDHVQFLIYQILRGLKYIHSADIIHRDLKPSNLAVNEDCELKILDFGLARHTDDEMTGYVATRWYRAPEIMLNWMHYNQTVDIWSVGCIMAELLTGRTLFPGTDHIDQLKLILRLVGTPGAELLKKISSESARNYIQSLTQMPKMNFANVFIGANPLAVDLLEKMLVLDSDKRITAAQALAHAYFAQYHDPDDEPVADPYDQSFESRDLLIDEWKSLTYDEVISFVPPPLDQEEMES", "assay": "ExpresS Diversity Kinase Profile, Cerep (LANCE): p38α", "format": "biochemical", "details": "150 µM"}, "ROCK1": {"target": "ROCK1 (Homo sapiens, UniProt Q13464)", "sequence (Q13464 whole entry)": "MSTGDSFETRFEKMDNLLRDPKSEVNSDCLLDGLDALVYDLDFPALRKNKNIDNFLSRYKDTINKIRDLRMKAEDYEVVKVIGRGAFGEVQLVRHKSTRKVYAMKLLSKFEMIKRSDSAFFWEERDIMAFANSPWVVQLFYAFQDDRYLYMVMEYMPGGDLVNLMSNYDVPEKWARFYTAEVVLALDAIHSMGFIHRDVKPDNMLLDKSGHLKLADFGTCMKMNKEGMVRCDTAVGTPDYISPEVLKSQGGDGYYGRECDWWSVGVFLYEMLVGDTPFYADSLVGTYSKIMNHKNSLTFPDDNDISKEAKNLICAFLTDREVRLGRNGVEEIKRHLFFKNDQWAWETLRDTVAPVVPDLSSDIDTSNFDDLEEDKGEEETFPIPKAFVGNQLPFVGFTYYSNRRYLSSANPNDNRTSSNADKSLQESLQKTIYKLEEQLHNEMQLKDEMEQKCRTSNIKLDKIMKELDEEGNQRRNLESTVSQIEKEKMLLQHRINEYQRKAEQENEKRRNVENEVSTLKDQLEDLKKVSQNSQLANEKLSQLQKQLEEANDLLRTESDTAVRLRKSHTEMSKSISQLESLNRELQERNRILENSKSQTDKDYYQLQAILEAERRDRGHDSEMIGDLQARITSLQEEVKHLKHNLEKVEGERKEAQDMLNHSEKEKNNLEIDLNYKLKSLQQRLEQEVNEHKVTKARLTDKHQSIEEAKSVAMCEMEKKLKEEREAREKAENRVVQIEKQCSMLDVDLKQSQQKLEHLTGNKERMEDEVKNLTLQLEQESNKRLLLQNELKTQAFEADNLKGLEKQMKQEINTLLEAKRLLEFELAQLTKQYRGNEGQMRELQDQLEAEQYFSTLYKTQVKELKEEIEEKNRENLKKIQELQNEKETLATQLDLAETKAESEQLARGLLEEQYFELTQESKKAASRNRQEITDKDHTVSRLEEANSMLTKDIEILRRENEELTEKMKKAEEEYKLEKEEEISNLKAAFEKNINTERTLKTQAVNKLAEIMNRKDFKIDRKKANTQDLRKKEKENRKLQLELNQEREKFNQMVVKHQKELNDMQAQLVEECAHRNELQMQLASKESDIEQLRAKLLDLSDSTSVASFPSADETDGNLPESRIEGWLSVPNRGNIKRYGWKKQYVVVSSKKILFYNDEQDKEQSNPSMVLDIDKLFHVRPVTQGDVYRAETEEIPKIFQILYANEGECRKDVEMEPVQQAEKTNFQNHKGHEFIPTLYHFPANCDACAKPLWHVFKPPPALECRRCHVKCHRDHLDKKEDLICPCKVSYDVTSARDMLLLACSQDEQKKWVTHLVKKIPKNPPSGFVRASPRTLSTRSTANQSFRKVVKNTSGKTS", "assay": "ExpresS Diversity Kinase Profile, Cerep (LANCE): ROCK1", "format": "biochemical"}, "PKCβ2": {"target": "PKCβ2 (Homo sapiens, UniProt P05771)", "sequence (P05771 1-673 isoform P05771-2)": "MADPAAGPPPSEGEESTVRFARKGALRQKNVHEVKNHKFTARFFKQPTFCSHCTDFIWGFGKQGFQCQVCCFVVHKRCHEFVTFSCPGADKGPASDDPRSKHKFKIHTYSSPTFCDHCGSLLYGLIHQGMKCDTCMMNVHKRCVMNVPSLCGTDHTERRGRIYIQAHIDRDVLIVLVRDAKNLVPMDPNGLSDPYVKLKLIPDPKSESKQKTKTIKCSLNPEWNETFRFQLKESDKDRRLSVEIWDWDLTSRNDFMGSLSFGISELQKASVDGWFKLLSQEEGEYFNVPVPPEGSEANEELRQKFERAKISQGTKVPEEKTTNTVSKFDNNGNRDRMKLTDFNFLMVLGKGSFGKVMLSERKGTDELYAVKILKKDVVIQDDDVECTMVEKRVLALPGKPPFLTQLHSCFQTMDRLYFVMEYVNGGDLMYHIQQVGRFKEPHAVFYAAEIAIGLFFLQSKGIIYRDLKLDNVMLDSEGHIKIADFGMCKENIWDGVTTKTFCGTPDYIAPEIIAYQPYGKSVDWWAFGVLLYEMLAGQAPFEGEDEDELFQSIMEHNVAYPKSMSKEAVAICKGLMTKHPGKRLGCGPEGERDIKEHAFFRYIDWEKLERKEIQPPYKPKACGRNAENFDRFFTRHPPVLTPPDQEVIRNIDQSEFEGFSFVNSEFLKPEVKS", "assay": "ExpresS Diversity Kinase Profile, Cerep (LANCE): PKCβ2", "format": "biochemical"}, "MNK2": {"target": "MNK2 (Homo sapiens, UniProt Q9HBH9)", "sequence (Q9HBH9 whole entry)": "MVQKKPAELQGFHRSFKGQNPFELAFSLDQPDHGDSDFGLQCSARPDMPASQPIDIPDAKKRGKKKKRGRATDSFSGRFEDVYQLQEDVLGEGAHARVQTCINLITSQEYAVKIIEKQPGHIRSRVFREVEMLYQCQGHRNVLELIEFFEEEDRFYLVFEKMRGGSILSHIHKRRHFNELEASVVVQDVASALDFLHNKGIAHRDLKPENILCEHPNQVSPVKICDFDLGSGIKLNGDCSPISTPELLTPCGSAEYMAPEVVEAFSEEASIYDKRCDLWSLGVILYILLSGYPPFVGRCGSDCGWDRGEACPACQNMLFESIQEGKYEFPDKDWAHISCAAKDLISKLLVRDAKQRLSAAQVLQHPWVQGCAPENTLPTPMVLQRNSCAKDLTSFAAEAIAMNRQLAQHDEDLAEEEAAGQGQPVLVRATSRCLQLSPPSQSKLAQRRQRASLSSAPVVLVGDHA", "assay": "ExpresS Diversity Kinase Profile, Cerep (LANCE): MNK2", "format": "biochemical"}, "CaMK2α": {"target": "CaMK2α (Homo sapiens, UniProt Q9UQM7)", "sequence (Q9UQM7 whole entry)": "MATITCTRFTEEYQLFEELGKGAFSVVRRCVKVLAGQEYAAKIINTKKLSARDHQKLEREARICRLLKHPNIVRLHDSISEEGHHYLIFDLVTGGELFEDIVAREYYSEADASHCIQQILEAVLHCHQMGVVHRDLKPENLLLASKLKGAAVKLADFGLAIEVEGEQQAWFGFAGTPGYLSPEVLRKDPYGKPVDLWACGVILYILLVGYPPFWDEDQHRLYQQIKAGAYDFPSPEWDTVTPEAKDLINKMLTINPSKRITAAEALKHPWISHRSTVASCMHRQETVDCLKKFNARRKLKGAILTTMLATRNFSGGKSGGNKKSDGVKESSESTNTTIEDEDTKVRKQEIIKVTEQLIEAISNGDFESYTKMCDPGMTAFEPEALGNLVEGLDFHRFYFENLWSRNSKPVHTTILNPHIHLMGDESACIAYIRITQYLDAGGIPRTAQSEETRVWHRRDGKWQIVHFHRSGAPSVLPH", "assay": "ExpresS Diversity Kinase Profile, Cerep (LANCE): CaMK2α", "format": "biochemical"}, "5-LO": {"target": "T1, 5-LO (Homo sapiens, UniProt P09917)", "T1 sequence (P09917 1-674)": "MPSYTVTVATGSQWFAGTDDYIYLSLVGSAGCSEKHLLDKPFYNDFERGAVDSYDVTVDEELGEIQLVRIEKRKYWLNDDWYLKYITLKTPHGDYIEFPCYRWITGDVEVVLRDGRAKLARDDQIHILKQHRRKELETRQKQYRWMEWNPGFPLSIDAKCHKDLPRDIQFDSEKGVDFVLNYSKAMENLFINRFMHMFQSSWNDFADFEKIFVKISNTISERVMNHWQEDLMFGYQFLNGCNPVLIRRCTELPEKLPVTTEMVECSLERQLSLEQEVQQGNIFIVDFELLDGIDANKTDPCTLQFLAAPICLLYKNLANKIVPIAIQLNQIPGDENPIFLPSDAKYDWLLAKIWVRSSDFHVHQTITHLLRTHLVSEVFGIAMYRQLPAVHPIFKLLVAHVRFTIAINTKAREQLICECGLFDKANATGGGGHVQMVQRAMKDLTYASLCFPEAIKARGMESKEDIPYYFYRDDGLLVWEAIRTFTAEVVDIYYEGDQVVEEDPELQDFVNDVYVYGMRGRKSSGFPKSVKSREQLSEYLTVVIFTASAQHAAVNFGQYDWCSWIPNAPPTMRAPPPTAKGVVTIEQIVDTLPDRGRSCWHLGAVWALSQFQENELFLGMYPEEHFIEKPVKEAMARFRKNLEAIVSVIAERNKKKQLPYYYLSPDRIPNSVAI", "assay": "5-LO inhibition assay, Cerep (Method A, indirect fluorogenic readout, Rhodamine 123)", "format": "biochemical"}, "Lck": {"target": "Lck (Homo sapiens, UniProt P06239)", "sequence (P06239 whole entry)": "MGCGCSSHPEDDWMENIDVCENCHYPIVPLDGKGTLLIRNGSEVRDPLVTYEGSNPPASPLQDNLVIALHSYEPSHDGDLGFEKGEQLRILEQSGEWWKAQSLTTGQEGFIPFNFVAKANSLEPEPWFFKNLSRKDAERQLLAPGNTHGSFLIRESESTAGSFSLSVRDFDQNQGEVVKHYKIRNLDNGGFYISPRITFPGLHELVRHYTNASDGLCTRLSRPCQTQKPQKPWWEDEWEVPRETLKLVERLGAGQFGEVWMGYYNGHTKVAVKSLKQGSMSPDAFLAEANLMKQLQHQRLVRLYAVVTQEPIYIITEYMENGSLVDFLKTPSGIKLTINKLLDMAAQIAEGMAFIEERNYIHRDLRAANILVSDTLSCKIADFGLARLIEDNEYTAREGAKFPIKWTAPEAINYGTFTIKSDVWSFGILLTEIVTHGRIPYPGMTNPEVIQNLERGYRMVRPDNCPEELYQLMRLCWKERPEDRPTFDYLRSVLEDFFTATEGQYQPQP", "assay": "ExpresS Diversity Kinase Profile, Cerep (LANCE): Lck", "format": "biochemical"}, "MAPKAPK2": {"target": "MAPKAPK2 (Homo sapiens, UniProt P49137)", "sequence (P49137 whole entry)": "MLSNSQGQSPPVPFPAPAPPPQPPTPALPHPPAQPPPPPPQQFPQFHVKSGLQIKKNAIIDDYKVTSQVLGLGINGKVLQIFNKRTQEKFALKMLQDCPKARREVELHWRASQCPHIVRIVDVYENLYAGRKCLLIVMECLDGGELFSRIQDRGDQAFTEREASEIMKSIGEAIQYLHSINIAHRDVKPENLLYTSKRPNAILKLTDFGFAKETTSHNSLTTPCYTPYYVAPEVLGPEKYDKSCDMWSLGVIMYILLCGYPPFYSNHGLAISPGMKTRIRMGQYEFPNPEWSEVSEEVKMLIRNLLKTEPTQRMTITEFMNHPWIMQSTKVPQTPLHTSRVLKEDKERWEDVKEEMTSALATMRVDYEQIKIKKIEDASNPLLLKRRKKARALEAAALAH", "assay": "ExpresS Diversity Kinase Profile, Cerep (LANCE): MAPKAPK2", "format": "biochemical"}, "EP1": {"target": "T2, EP1 (Homo sapiens, UniProt P34995)", "T2 sequence (P34995 1-402)": "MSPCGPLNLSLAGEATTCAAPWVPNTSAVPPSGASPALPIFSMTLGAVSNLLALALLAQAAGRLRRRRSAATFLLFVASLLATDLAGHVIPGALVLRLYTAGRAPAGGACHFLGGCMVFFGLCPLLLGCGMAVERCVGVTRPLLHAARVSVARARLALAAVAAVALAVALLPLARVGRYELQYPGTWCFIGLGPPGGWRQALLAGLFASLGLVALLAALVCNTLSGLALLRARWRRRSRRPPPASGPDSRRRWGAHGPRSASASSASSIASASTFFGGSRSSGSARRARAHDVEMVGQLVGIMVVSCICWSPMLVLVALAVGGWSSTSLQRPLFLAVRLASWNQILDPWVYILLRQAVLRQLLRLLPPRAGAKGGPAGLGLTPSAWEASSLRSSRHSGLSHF", "assay": "EP1 functional agonist assay, Cerep (intracellular Ca2+)"}, "TRKA": {"target": "TRKA (Homo sapiens, UniProt P04629)", "sequence (P04629 33-796)": "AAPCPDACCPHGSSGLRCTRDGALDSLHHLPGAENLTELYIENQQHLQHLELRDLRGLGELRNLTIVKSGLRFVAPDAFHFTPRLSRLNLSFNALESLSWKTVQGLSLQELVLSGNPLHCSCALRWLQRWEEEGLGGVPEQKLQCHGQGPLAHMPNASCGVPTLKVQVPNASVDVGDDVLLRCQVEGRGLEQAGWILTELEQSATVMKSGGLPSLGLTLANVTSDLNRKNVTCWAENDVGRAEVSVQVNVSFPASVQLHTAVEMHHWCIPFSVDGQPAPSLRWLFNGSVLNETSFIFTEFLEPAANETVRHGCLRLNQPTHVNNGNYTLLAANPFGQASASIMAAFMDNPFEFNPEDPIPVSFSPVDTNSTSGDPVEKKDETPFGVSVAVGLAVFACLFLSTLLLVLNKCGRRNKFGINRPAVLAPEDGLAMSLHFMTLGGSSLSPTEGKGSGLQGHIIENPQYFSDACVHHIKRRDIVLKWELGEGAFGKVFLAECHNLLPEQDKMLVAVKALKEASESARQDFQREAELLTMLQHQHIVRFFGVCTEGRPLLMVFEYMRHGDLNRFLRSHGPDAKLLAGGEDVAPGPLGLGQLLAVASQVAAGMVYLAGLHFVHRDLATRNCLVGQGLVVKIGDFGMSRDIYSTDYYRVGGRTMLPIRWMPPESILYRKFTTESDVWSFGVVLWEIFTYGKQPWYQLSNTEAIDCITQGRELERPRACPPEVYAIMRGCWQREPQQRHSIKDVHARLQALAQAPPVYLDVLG", "assay": "ExpresS Diversity Kinase Profile, Cerep (LANCE): TRKA", "format": "biochemical"}, "[2]": {"details": "read-out: % of control values, 1st measurement"}, "[3]": {"details": "read-out: % of control values, 2nd measurement"}, "[4]": {"details": "n = 2, read-out: % Inhibition of control values, Mean"}, "[5]": {"details": "read-out: % Inhibition of control values, 1st measurement"}, "[6]": {"details": "read-out: % Inhibition of control values, 2nd measurement"}, "[7]": {"details": "Flag: Interference, read-out: % Inhibition of control values, 1st measurement"}, "[8]": {"details": "Flag: Interference, read-out: % Inhibition of control values, 2nd measurement"}, "[9]": {"details": "n = 2, Flag: Interference, read-out: % Inhibition of control values, Mean"}}, "note": "Like-named read-outs stand apart in the source and are kept apart here."}
{"compound": "CC1(C)CCC2=C(O1)c1ccccc1C(=O)C2=O", "note": "[β-Lapachone]", "values": [{"measurement": "phenotypic effects on Staphylococcus aureus", "setting": "[1]", "result": "No phenotypic effects"}, {"measurement": "phenotypic effects on Escherichia coli", "setting": "Escherichia coli K12", "result": "No phenotypic effects"}, {"measurement": "IC50", "setting": "PDE5", "result": "> 10", "unit": "µM"}, {"measurement": "percent inhibition at 2 µM", "setting": "PDE5; n = 2, read-out: % of control values, Mean", "result": -8.3, "unit": "%"}, {"measurement": "percent inhibition at 2 µM", "setting": "PDE5; [2]", "result": -6.9, "unit": "%"}, {"measurement": "percent inhibition at 2 µM", "setting": "PDE5; [3]", "result": -9.7, "unit": "%"}, {"measurement": "activity against PDE5", "setting": "PDE5; screening against phosphodiesterase 5", "result": "inactivity"}, {"measurement": "inhibition at 150 µM", "setting": "p38α; [4]", "result": 25.1, "unit": "%"}, {"measurement": "inhibition at 150 µM", "setting": "p38α; [5]", "result": 27.1, "unit": "%"}, {"measurement": "inhibition at 150 µM", "setting": "p38α; [6]", "result": 23.1, "unit": "%"}, {"measurement": "inhibition at 150 µM", "setting": "ROCK1; [7]", "result": -12.5, "unit": "%"}, {"measurement": "inhibition at 150 µM", "setting": "ROCK1; [8]", "result": -3.2, "unit": "%"}, {"measurement": "inhibition at 150 µM", "setting": "ROCK1; [9]", "result": -7.9, "unit": "%"}, {"measurement": "inhibition at 150 µM", "setting": "PKCβ2; [4]", "result": 34, "unit": "%"}, {"measurement": "inhibition at 150 µM", "setting": "PKCβ2; [5]", "result": 36.5, "unit": "%"}, {"measurement": "inhibition at 150 µM", "setting": "PKCβ2; [6]", "result": 31.6, "unit": "%"}, {"measurement": "inhibition at 150 µM", "setting": "MNK2; [4]", "result": 80.1, "unit": "%"}, {"measurement": "inhibition at 150 µM", "setting": "MNK2; [5]", "result": 78.1, "unit": "%"}, {"measurement": "inhibition at 150 µM", "setting": "MNK2; [6]", "result": 82.1, "unit": "%"}, {"measurement": "inhibition at 150 µM", "setting": "CaMK2α; [4]", "result": 54.8, "unit": "%"}, {"measurement": "inhibition at 150 µM", "setting": "CaMK2α; [5]", "result": 61.5, "unit": "%"}, {"measurement": "inhibition at 150 µM", "setting": "CaMK2α; [6]", "result": 48, "unit": "%"}, {"measurement": "ligand efficiency (LE)", "setting": "5-LO; 5-LO", "result": 0.44}, {"measurement": "inhibition at 5 µM", "setting": "5-LO; 5-LO, n = 2, read-out: % inhibition of control values, Mean", "result": 102, "unit": "%"}, {"measurement": "inhibition at 5 µM", "setting": "5-LO; 5-LO, read-out: % inhibition of control values, 1st measure", "result": 103, "unit": "%"}, {"measurement": "inhibition at 5 µM", "setting": "5-LO; 5-LO, read-out: % inhibition of control values, 2nd measure", "result": 99.8, "unit": "%"}, {"measurement": "inhibition at 150 µM", "setting": "5-LO; 5-LO, 150 µM, read-out: % inhibition of control values, 1st measure", "result": 98.4, "unit": "%"}, {"measurement": "inhibition at 150 µM", "setting": "5-LO; 5-LO, 150 µM, read-out: % inhibition of control values, 2nd measure", "result": 92.9, "unit": "%"}, {"measurement": "IC50", "setting": "5-LO; 5-LO, indirect fluorogenic readout, read-out: Experimental –log(IC50 or KD) (converted)", "result": 2.51, "unit": "µM"}, {"measurement": "ligand efficiency (LE)", "setting": "5-LO; 5-LO, listed as 1", "result": "> 0.30"}, {"measurement": "IC50", "setting": "5-LO; IC50, 5-LO, indirect fluorescence detection (Cerep), n = 2", "result": 2.1, "unit": "µM"}, {"measurement": "inhibition at 150 µM", "setting": "5-LO; read-out: % inhibition of control values, Mean", "result": 95.7, "unit": "%"}, {"measurement": "inhibition at 150 µM", "setting": "Lck; [7]", "result": -32.6, "unit": "%"}, {"measurement": "inhibition at 150 µM", "setting": "Lck; [8]", "result": -37.7, "unit": "%"}, {"measurement": "inhibition at 150 µM", "setting": "Lck; [9]", "result": -35.2, "unit": "%"}, {"measurement": "inhibition at 150 µM", "setting": "MAPKAPK2; [7]", "result": -14.5, "unit": "%"}, {"measurement": "inhibition at 150 µM", "setting": "MAPKAPK2; [8]", "result": -2.7, "unit": "%"}, {"measurement": "inhibition at 150 µM", "setting": "MAPKAPK2; [9]", "result": -8.6, "unit": "%"}, {"measurement": "remaining activity at 150 µM", "setting": "EP1; [2]", "result": -11.9, "unit": "%"}, {"measurement": "remaining activity at 150 µM", "setting": "EP1; [3]", "result": -11.9, "unit": "%"}, {"measurement": "remaining activity at 150 µM", "setting": "EP1; read-out: % of control values, Mean", "result": -11.9, "unit": "%"}, {"measurement": "inhibition at 150 µM", "setting": "TRKA; [7]", "result": 38.1, "unit": "%"}, {"measurement": "inhibition at 150 µM", "setting": "TRKA; [8]", "result": 45.7, "unit": "%"}, {"measurement": "inhibition at 150 µM", "setting": "TRKA; [9]", "result": 41.9, "unit": "%"}]}
